Laboratory results taken from patent US20080138437A1, “Antitumor Agent” (priority 2004, published 2008).
Counter-ions that a name gives are not always drawn. Like-named read-outs stand apart in the source and are kept apart here.

Experiments:
in vivo [1] = details: BDF1, mouse, sc
[2] = tested on: 15 types of human cancer cells; test: Cell growth inhibition test, MTT, average GI 50; format: cell-based; details: average of 15 human cancer cell types, 48 hours exposure
Experimental: Appropriate amounts of each of the human cancer cells suspended in 5% fetal bovine serum-supplemented medium were plated into a 96-well plate, and allowed to adhere to the wells in a 37° C. CO2 incubator overnight.
These cancer cells were exposed to each anticancer agent for 48 hours. Cell growth was assayed by MTT. Absorbance of the control well (C) and the test well (T) was measured at 550 nm.
The absorbance of the test well immediately after adding the drug (TO) was also measured. Using these measured values, GI 50 of each drug was calculated, and the drug concentration at that time was obtained. For comparison, a similar test was performed for each of the anticancer agents (Comparative Tests 4-1 to 4-7).

in vivo [3] = details: male, C57BL/6, mouse
C57BL/6 male mouse = details: one-time, 14 days observation
[4] = tested on: HCT-15 colon cancer cells; test: Antitumor test, transplanted tumor in nude mice; format: in vivo, human; details: control, drug without hydroxyapatite adsorption
Excerpt: (§1) (Experimental Test 5-1 to 5-5).
(§2) Female nude mice (7 weeks old, 16 to 22 g) with a BALB/c genetic background were used for the tests. Human cancer cells used for the tests were GCIY stomach cancer cells, HCT-15 colon cancer cells, A549 lung cancer cells, and OVCAR-3 ovarian cancer cells. Human cancer cells were subcutaneously transplanted into nude mice, tumor lumps were formed, and these carcinomas were used for the tests.
(§3) Aseptically collected tumors were sliced into tumors of 3×3×3 mm, and then subcutaneously transplanted into a new nude mouse. When the tumors reached a volume of 100 to 300 mm^3, the animals were arbitrarily divided into groups of six (Day 0). […] Intravascular administration was the administration route for all.
(§4) After administration, between Days 24 to 31, the length (L) and width (W) of the tumor lump of the animal were measured twice a week, and the tumor volume (TV) was calculated according to the following formula: TV=(L×W^2)/2. Antitumor effect was determined at Day 14. The relative tumor volume (RTV) was obtained by the following formula: RTV=TV14/TV0, using values of the tumor volume at Day 0 and Day 14 (referred to as TV0 and TV14). Antitumor effect was evaluated as the tumor regression rate at Day 14 (T/C%). Herein, T/C %=100×(average RTV of the treated group)/(RTV of the control group).
(§5) As a control, each drug was tested without hydroxyapatite adsorption (Comparative Tests 5-10 to 5-14).

A549 lung cancer cells = test: Antitumor test, transplanted tumor in nude mice; format: in vivo, human; details: control, drug without hydroxyapatite adsorption
Excerpt: as §1, §2, §3, §4, §5

[5] = tested on: OVCAR-3 ovarian cancer cells; test: Antitumor test, transplanted tumor in nude mice; format: in vivo, human; details: control, drug without hydroxyapatite adsorption
Excerpt: as §1, §2, §3, §4, §5

[6] = tested on: GCIY stomach cancer cells; test: Antitumor test, transplanted tumor in nude mice; format: in vivo, human; details: control, drug without hydroxyapatite adsorption
Excerpt: as §1, §2, §3, §4, §5
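For deaths versus administered animals in this document: mice given a single dose and followed for 14 days, with deaths tallied, LD50 derived from the doses given and the resulting death counts.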

In the case of `COc1cccc2c1C(=O)c1c(O)c3c(c(O)c1C2=O)C[C@@](O)(C(=O)CO)C[C@@H]3O[C@H]1C[C@H](N)[C@H](O)[C@H](C)O1` [Doxorubicin], the LD50 (in vivo [1]) is reported as 10 mg/kg and the GI50 [2] is reported as 72 nM.
For `COc1cc([C@@H]2c3cc4c(cc3[C@@H](O[C@@H]3O[C@@H]5CO[C@@H](C)O[C@H]5[C@H](O)[C@H]3O)[C@H]3COC(=O)[C@H]23)OCO4)cc(OC)c1O` [Etoposide], the LD50 (in vivo [3]) was 32.7 mg/kg, the LD50 (in vivo [3]; po) was 220 mg/kg and the “deaths versus administered animals” value (C57BL/6 male mouse; 10 mg/kg intravascular) was 0/6. The “deaths versus administered animals” value (C57BL/6 male mouse; 20 mg/kg intravascular) was 1/6, the “deaths versus administered animals” value (C57BL/6 male mouse; 30 mg/kg intravascular) was 2/6 and the “deaths versus administered animals” value (C57BL/6 male mouse; 40 mg/kg intravascular) was 5/7. The “deaths versus administered animals” value (C57BL/6 male mouse; 50 mg/kg intravascular) was 5/6, the “deaths versus administered animals” value (C57BL/6 male mouse; 60 mg/kg intravascular) was 6/6 and the “Regression rate of transplanted cancer (T/C %) at Day 14” value (from here on “Regression rate … (T/C %) at Day 14”) [4] was 67%. The “Regression rate … (T/C %) at Day 14” value (A549 lung cancer cells) was 72%, the “Regression rate … (T/C %) at Day 14” value [5] was 76% and the “Regression rate … (T/C %) at Day 14” value [6] was 93%. It also gave a GI50 [2] of 5110 nM.
In the case of `O=c1[nH]cc(F)c(=O)[nH]1` [Fluorouracil], the LD50 (in vivo [3]) is reported as 244 mg/kg, the “deaths versus administered animals” value (C57BL/6 male mouse; 50 mg/kg intravascular) is reported as 0/5 and the “deaths versus administered animals” value (C57BL/6 male mouse; 100 mg/kg intravascular) is reported as 1/5. For the same compound, the “deaths versus administered animals” value (C57BL/6 male mouse; 150 mg/kg intravascular) was 1/5, the “deaths versus administered animals” value (C57BL/6 male mouse; 200 mg/kg intravascular) was 2/5 and the “deaths versus administered animals” value (C57BL/6 male mouse; 250 mg/kg intravascular) was 2/6. The “deaths versus administered animals” value (C57BL/6 male mouse; 300 mg/kg intravascular) was 3/5, the “deaths versus administered animals” value (C57BL/6 male mouse; 350 mg/kg intravascular) was 5/6 and the “deaths versus administered animals” value (C57BL/6 male mouse; 400 mg/kg intravascular) was 6/6. For the same compound, the “Regression rate … (T/C %) at Day 14” value [4] was 59%, the “Regression rate … (T/C %) at Day 14” value (A549 lung cancer cells) was 117% and the “Regression rate … (T/C %) at Day 14” value [5] was 74%. The “Regression rate … (T/C %) at Day 14” value [6] was 69% and the GI50 [2] was 36800 nM.
With `Cc1ncc(CNC(=O)N(CCCl)N=O)c(N)n1` [Nimustine hydrochloride] the LD50 (in vivo [1]) was 50 mg/kg.
For `CC[C@]1(O)C[C@H]2CN(CCc3c([nH]c4ccccc34)[C@@](C(=O)OC)(c3cc4c(cc3OC)N(C=O)[C@H]3[C@@](O)(C(=O)OC)[C@H](OC(C)=O)[C@]5(CC)C=CCN6CC[C@]43[C@@H]65)C2)C1` [Vincristine sulfate], the LD50 (in vivo [3]) was 1.98 mg/kg, the “deaths versus administered animals” value (C57BL/6 male mouse; 1.0 mg/kg intravascular) was 0/5 and the “deaths versus administered animals” value (C57BL/6 male mouse; 1.5 mg/kg intravascular) was 2/5. The “deaths versus administered animals” value (C57BL/6 male mouse; 2.0 mg/kg intravascular) was 3/8, the “deaths versus administered animals” value (C57BL/6 male mouse; 3.0 mg/kg intravascular) was 7/8 and the “deaths versus administered animals” value (C57BL/6 male mouse; 3.5 mg/kg intravascular) was 8/8. The “Regression rate … (T/C %) at Day 14” value [4] was 101%, the “Regression rate … (T/C %) at Day 14” value (A549 lung cancer cells) was 76% and the “Regression rate … (T/C %) at Day 14” value [5] was 79%. For the same compound, the “Regression rate … (T/C %) at Day 14” value [6] was 81% and the GI50 [2] was 3.6 nM.
